In patent US20140302556A1, “CONTROLLING O-GLYCOSYLATION IN LOWER EUKARYOTES” (priority 2011, published 2014):

How the values were obtained:
[1] = test system: un-mutagenized YGLY19376 parent strain; experiment: Growth on agar plates containing PMT inhibitor; assay type: cell-based, Pichia pastoris; conditions: agar plate
Protocol: (§1) UV mutagenesis was performed as described by Winston (Curr. Protoc. Mol. Biol. 82:13.3B.1-13.3B.5 (2008)). Briefly, Pichia pastoris strain YGLY19376 (GFI5.0, pmt4Δ, expressing a recombinant IgG1) was grown in 40 mL YSD liquid medium over night at 24° C. Upon reaching an OD600 of five, a 10 mL aliquot of culture was transferred into an empty 100 mm sterile Petri dish, and treated, with the lid off, with 12 mJ/cm^2 of UV irradiation. After the UV treatment, the Petri dish was immediately covered with aluminum foil (to prevent photo-induced DNA repair). The mutagenized cells were allowed to recover at 24° C. for three hours in the dark. Two mL of the recovered YGLY19376 was then centrifuged at 2,000 rpm for five minutes. The cell pellet was then re-suspended in 400 μL 2% BMGY media and subsequently plated onto YSD agar plates containing 2 μg/mL or 4 μg/mL PMTi-4 PMT inhibitor (Example 4 compound of U.S. Published Application No. 20110076721 having the structure

[2] = test system: non-mutagenized parent strain YGLY19376; experiment: 1 L DasGip MeOH fed-batch fermentation with PMTi-4 (lysis, IgG1 titer, glycans); assay type: cell-based, Pichia pastoris
Protocol: (§2) Fed-batch fermentations, IgG1 purifications, characterization of N- and O-glycan profiles as well as all other analytical assays, were performed essentially as previously described (Barnard et al., J. Ind. Microbiol. Biotechnol. 37(9): 961-71 (2010); Potgieter et al., J. Biotechnol. 139(4):318-25 (2009)).
(§3) Both PMT inhibitor-resistant mutant strains (YGLY17156 and YGLY17157), as well as the non-mutagenized parent strain YGLY19376 were grown in 1 L DasGip fermentors using a standard MeOH fed-batch fermentation protocol (See for example, Potgieter et al., J. Biotechnol. 139(4): 318-25 (2009) and Hopkins et al., Glycobiol. August 12. [Epub ahead of print] PubMed PMID: 21840970 (2011)).
(§4) The robustness of the strains was determined by examining the fermentation cell cultures under microscope. Depending on the proportion of cell debris, a lysis-score was assigned from 0.5 to 5, with 5 being the worst lysis.
The inoculum seed flasks were inoculated from yeast patches (isolated from a single colony) on agar plates into 0.1 L of 4% BSGY in a 0.5-L baffled flask. Seed flasks were grown at 180 rpm and 24° C. (Innova 44, New Brunswick Scientific) for 48 hours. Cultivations were done in 1 L (fedbatch-pro, DASGIP BioTools) bioreactors. Vessels were charged with 0.54 L of 0.22 μm filtered 4% BSGY media and autoclaved at 121° C. for 45 minutes. […]

[3] = test system: Pichia pastoris mutant strain YGLY17156; experiment: Growth on YSD agar plates containing PMTi-4; assay type: cell-based; conditions: agar plate, 24° C.
[4] = test system: PMTi-4-resistant mutant strain YGLY17157; experiment: 1 L DasGip MeOH fed-batch fermentation with PMTi-4 (lysis, WCW, IgG1 titer, glycans); assay type: cell-based, Pichia pastoris
Protocol: as §2, §3, §4
(§5) The inoculum seed flasks were inoculated from yeast patches (isolated from a single colony) on agar plates into 0.1 L of 4% BSGY in a 0.5-L baffled flask. Seed flasks were grown at 180 rpm and 24° C. (Innova 44, New Brunswick Scientific) for 48 hours. Cultivations were done in 1 L (fedbatch-pro, DASGIP BioTools) bioreactors. Vessels were charged with 0.54 L of 0.22 μm filtered 4% BSGY media and autoclaved at 121° C. for 45 minutes. After sterilization and cooling; the aeration, agitation and temperatures were set to 0.7 vvm, 400 rpm and 24° C. respectively. The pH was adjusted to and controlled at 6.5 using 30% ammonium hydroxide. Inoculation of a prepared bioreactor occurred aseptically with 60 mL from a seed flask. Agitation was ramped to maintain 20% dissolved oxygen (DO) saturation. After the initial glycerol charge was consumed, denoted by a sharp increase in the dissolved oxygen, a 50% w/w glycerol solution containing 5 mg/L biotin and 32.3 mg/L PMTi4 was triggered to feed at 3.68 mL/hr for eight hours. During the glycerol fed-batch phase 0.375 mL of PTM2 salts were injected manually. Completion of the glycerol fed-batch was followed by a 0.5 hour starvation period and initiation of the induction phase. A continuous feed of a 50% v/v methanol solution containing 2.5 mg/L biotin and 6.25 mL/L PTM2 salts was started at a flat rate of 2.16 mL/hour. Injections of 0.25 mL of 1.9 mg/mL PMTi-4 (in methanol) were added after each 24 hours of induction. In general, individual fermentations were harvested within 36-110 hours of induction. The culture broth was clarified by centrifugation (Sorvall Evolution RC, Thermo Scientific) at 8500 rpm for 40 min and the resulting supernatant was submitted for purification.

[5] = test system: PMTi-4-resistant mutant strain YGLY17156; experiment: as above; assay type: cell-based, Pichia pastoris
Protocol: as §2, §3, §4, §5

[6] = test system: Pichia pastoris mutant strain YGLY17157; experiment: Growth on YSD agar plates containing PMTi-4; assay type: cell-based; conditions: agar plate, 24° C.
Protocol: as §1
After seven days incubation at 24° C., colonies were picked and re-streaked onto fresh PMTi-4-containing plates at the above concentrations.

CC(C)COCC(Oc1cc(/C=C2\SC(=S)N(CC(=O)O)C2=O)ccc1OCCc1ccc(F)cc1)c1ccccc1 (stereo not drawn) [PMTi-4]
PMT inhibitor concentration at which strain failed to grow [1]: ≤ 0.1 µg/mL | O-glycan Occupancy (mannitol/protein) ([2]; IgG1): 1.0 mol/mol | Lysis at 24° C. Day 2 ([2]; lysis-score 0.5 to 5, 5 worst): 3 | PMTi-4 concentration at which robust growth is exhibited [3]: at least 4 μg/mL | O-glycan Occupancy (mannitol/protein) ([4]; IgG1): 0.6 mol/mol | Lysis at 24° C. Day 1 ([4]; lysis-score 0.5 to 5, 5 worst): 0.5 | Lysis at 24° C. Day 3 ([4]; lysis-score 0.5 to 5, 5 worst): 1 | Lysis at 24° C. Day 4 ([4]; lysis-score 0.5 to 5, 5 worst): 1 | WCW Day 4 ([4]; wet cell weight): 303 | O-glycan Occupancy (mannitol/protein) ([5]; IgG1): 2.4 mol/mol | Lysis at 24° C. Day 1 ([5]; lysis-score 0.5 to 5, 5 worst): 0.5 | Lysis at 24° C. Day 3 ([5]; lysis-score 0.5 to 5, 5 worst): 1 | Lysis at 24° C. Day 4 ([5]; lysis-score 0.5 to 5, 5 worst): 1.5 | WCW Day 4 ([5]; wet cell weight): 236 | PMTi-resistance level [6]: at least 1 μg/mL
